From patent publication US20180311194A1, “APPLICATION OF TRANILAST IN PREPARATION OF DRUG TREATING SCLEREDEMA DIABETICORUM” (THE FIRST AFFILIATED HOSPITAL OF NANJING MEDICAL UNIVERSITY, priority 2016, published 2018)

How the values were obtained:
type I collagen mRNA = settings: human dermal fibroblasts; cited from earlier work
experimental asthma = settings: rats; cited from earlier work
[1] = test system: patients with scleredema diabeticorum; test: Clinical oral treatment of patients with scleredema diabeticorum, skin thickness by B-ultrasound; format: in vivo, human; settings: for skin thickness measured by B-ultrasound: back skin
Source text: FIG. 1 is a B-ultrasonography of a patient before medication (a and b are different parts of the affected skin).
1. Mode of administration: oral, tranilast 0.1 g, 3 times a day, every 3 months for a course of treatment, a total of two courses.

fibroblast = test: Secretion and synthesis of mucin by fibroblast; format: cell-based; settings: initially found
[2] = test system: IgE antibody-induced cutaneous anaphylaxis; settings: rats; cited from earlier work
[3] = 3 patients, tranilast capsule 0.1, 3 times a day orally, after 3 months
[4] = patients with scleredema diabeticorum, after 3 months of application

COc1ccc(/C=C/C(=O)Nc2ccccc2C(=O)O)cc1OC [tranilast]
TGF-β-induced upregulation of type I collagen mRNA expression and basal level of type I collagen mRNA (type I collagen mRNA): able to suppress | effect on experimental asthma (experimental asthma): significant inhibitory effect | local skin erythema [1, 3]: subsided significantly | uncomfortable symptom of conscious hardening [1, 3]: significantly relieved | therapeutic effect on scleredema diabeticorum ([1]; clinical results): good therapeutic effect | skin thickness measured by B-ultrasound ([1]; patient Example 1, person, after 3 months of oral administration, before 6.5 mm): 6 mm | skin thickness measured by B-ultrasound ([1]; patient Example 2, person, 0.1 three times a day, after 3 months, before 8 mm): 6 mm | skin thickness measured by B-ultrasound ([1]; patient Example 3, person, 0.1 three times a day, after 3 months, before 8.5 mm): 5.9 mm | thickness of the surrounding skin (B-ultrasonography) ([1]; patient, after 3 months of medication, before medication 3.6 mm): 3.0 mm | thickness of the thickest part of skin on the right side (back of the neck, B-ultrasonography) ([1]; patient, after 3 months of medication, before medication about 7.5 mm): about 6.3 mm | thickness of the thickest part of the skin on the left side (back of the neck, B-ultrasonography) ([1]; patient, after 3 months of medication, before medication about 8.7 mm): about 6.8 mm | reduction of maximum skin thickness (B-ultrasound) ([1]; patient, after 3 months of treatment, before treatment 7.8 to 8.7 mm): 2 mm | adverse reactions [1, 4]: no significant adverse reactions were observed | symptoms in clinical practice [1, 4]: significantly relieved | thickness of the skin detected by B-ultrasound [1, 4]: significantly thinner | skin change in further treated cases ([1]; several further cases): skin thinning | blood routine examination, routine urine examination, and biochemical detection ([1]; tranilast capsule 0.1, 3 times a day orally, 3 months): no obvious abnormalities | secretion and synthesis of mucin by fibroblast (fibroblast): inhibiting | effect on IgE antibody-induced cutaneous anaphylaxis [2]: significant inhibitory effect
